# Laboratory results: PMC9696579 (Nature structural & molecular biology, 2022)
# Where a SMILES comes first, the peptide text is derived from it. The star is where a group is joined. 5FAM = O=C1OC2(c3ccc(O)cc3Oc3cc(O)ccc32)c2ccc(C(=O)*)cc21; PEG3 = NCCOCCOCCOCCC(=O)O
# Assays:
# human PKA-Cα = human PKA-Cα (Homo sapiens, UniProt P17612); assay: Fluorescence polarization, FAM-labeled SMO peptide binding to human PKA-Cα; conditions: human or mouse PKA-Cα
# SMO [1] = assay: Immunofluorescence of SMO and endogenous PKA-C in NIH3T3 cilia
# SMO [2] = conditions: inverse agonist; cited from earlier work
# PKA-Cα [3] = assay: SMO / PKA-C colocalization in cilia of IMCD3 cells; format: cell-based; conditions: WRR mutation, SAG21k 1 μM overnight
# GLI = GLI transcriptional reporter assay in Smo−/− MEFs; format: cell-based, mouse; conditions: ShhN conditioned medium, 2 days, n = three
# PKA-Cα [4] = assay: BRET analysis of SMO / PKA-C interactions in IMCD3 cells; format: cell-based, mouse; conditions: PKA-C expressed at near-endogenous levels, n = three
# mouse PKA-Cα = mouse PKA-Cα (Mus musculus, UniProt P05132); assay: Surface plasmon resonance; conditions: SPR
# [5] = target: mouse PKA catalytic subunit (Cα) (Mus musculus, UniProt P05132); assay: In vitro PKA-C activity assay; format: biochemical; conditions: read-out: IC50 for PKA-C activity; recombinant SMO pCT; apparent IC50; 15–30 nM Cα, 260 μM Kemptide, 100 μM ATP, 10 mM MgCl2, 100 mM MOPS pH 7; 3 min preincubation, room temperature; two independent experiments
# PKA-Cα [6] = assay: BRET analysis of SMO / PKA-C interactions in HEK293 cells; format: cell-based, mouse; conditions: nanoluc-tagged SMO657 with YFP-tagged PKA-Cα, mean, n = three
# smo−/− zebrafish = assay: Slow muscle specification in smo−/− zebrafish embryos; format: in vivo, Danio rerio; conditions: mRNA injection; Prox1 / Engrailed staining; <26 hours post-fertilization
compound,measurement,setting,value
CC[C@H](C)[C@H](NC(=O)[C@H](C)NC(=O)CNC(=O)[C@H](CCCNC(=N)N)NC(=O)[C@H](CCCNC(=N)N)NC(=O)[C@H](C)NC(=O)[C@@H](NC(=O)[C@H](CCSC)NC(=O)[C@H](CCCCN)NC(=O)[C@@H](NC(=O)[C@@H](NC(=O)[C@H](Cc1c[nH]cn1)NC(=O)[C@H](CCC(N)=O)NC(=O)[C@H](C)NC(=O)[C@H](Cc1c[nH]c2ccccc12)NC(=O)[C@H](C)NC(=O)[C@H](CO)NC(=O)[C@H](CO)NC(=O)[C@@H](NC(=O)[C@H](CC(=O)O)NC(=O)[C@H](C)NC(=O)[C@H](CO)NC(=O)CCOCCOCCOCCNC(=O)c1ccc2c(c1)C(=O)OC21c2ccc(O)cc2Oc2cc(O)ccc21)C(C)C)C(C)C)[C@@H](C)O)C(C)C)C(=O)N[C@@H](CC(C)C)C(=O)N1CCC[C@H]1C(=O)O ({5FAM-PEG3}-SADVSSAWAQHVTKMVARRGAILP-OH),ATP dependence of interaction with PKA-Cα,human PKA-Cα,strongly ATP-dependent
CNC1CCC(N(Cc2cccc(-c3ccncc3)c2)C(=O)c2sc3ccccc3c2Cl)CC1 (stereo not shown) [SAG],accumulation of SMO in cilia,"SMO [1]; NIH3T3 stably expressing SMO-V5-TurboID, SAG 100 nM, anti-V5",dramatic accumulation of SMO in cilia
CC1=C2C[C@H]3[C@@H](CC=C4C[C@@H](O)CC[C@@]43C)[C@@H]2CC[C@]12O[C@@H]1C[C@H](C)CN[C@H]1[C@H]2C [cyclopamine],SMO colocalization with endogenous PKA-C in primary cilium,"SMO [1]; NIH3T3, cyclopamine 5 μM, 8 hours",did not occur
same,"effect on SMO (accumulation in cilia, conformation)",SMO [2],induces SMO to accumulate in cilia but traps it in an inactive conformation
SMO WRR: full-length SMO with WRR mutation (SADVSSAAAQHVTKMVAAAGAILPQDVSVTPVATPVPP),colocalization with PKA-C in cilia,PKA-Cα [3],dramatically reduced colocalization in cilia
same,GLI transcriptional response,GLI,almost completely devoid of activity
same,interaction with PKA-C (BRET),PKA-Cα [4],prevented interaction between SMO and PKA-C
"SMO pCT: recombinant protein encompassing the entire 93 amino-acid SMO pCT, GST-tagged for SPR",ATP/MgCl2 dependence of PKA-C binding,"mouse PKA-Cα; ATP and MgCl2 omitted, PKA-Cα […]",depended strictly on ATP and MgCl2
same,binding to PKA-Cα,"mouse PKA-Cα; mouse PKA-Cα, ATP and MgCl2 present",bound specifically to mouse PKA-Cα
"recombinant SMO pCT: residues 565–657 of mouse SMO, cleaved from MBP-His8-SUMO tags",IC50,[5],10.9 µM
wild-type SMO657: nanoluc-tagged truncated SMO construct,BRET with PKA-C,PKA-Cα [6],"strong, specific BRET"
wild-type SMO: full-length wild-type SMO construct,muscle specification in smo−/− zebrafish,smo−/− zebrafish,restored correct muscle specification
same,GLI transcriptional response,GLI,strong GLI transcriptional responses to Hh ligands
